Series [1] deals with Murine insulinoma beta-TC3 (β-TC3) cells. The experiment in a line: Anesthetic preconditioning against H2O2 oxidative stress, cell viability by FACS. The format is cell-based. The procedure:
Murine insulinoma beta-TC3 (β-TC3) cells were used as a surrogate source of β-cells in vitro. […] FIG. 26 is illustrative of the experimental design for the present study. Cells were then harvested and assayed for viability via FACS analysis (Live/Dead far red, and TMRE, mitochondrial fluorescent dye to detect apoptosis). Data was analyzed using ANOVA with post hoc Tukey for multiple comparisons.
In general terms: In flow cytometry, cells or beads pass a laser one at a time.

Another series has as its system p38 MAPK. The experiment in a line: p38 MAPK activity after H2O2 oxidative stress in β-TC3 cells. The format is cell-based, murine. Here is the method:
Murine insulinoma beta-TC3 (β-TC3) cells were used as a surrogate source of β-cells in vitro. The β-TC3 cells were incubated for 48 hours, and then subdivided into four (4) groups, with three (3) series of cell cultures per group repeated in triplicate. Group 1 were sham cultured β-TC3 cells; group 2 cells were subdivided into those pre-treated with 0.5 mM isoflurane for 15 minutes or 60 minutes without H2O2, followed by an isoflurane washout; group 3 cells were exposed only to 0.3 mM H2O2 for 3 hours; group 4 cells were pre-treated with isoflurane for 15 minutes or 60 minutes, as in group 2, followed by an isoflurane washout and exposure to 0.3 mM H2O2 for 3 hours. FIG. 26 is illustrative of the experimental design for the present study.

Series [2] in a line: Isoflurane concentration in stored emulsion measured by weight. In kind it is physicochemical. The conditions noted are these: open container, about 21° C. The procedure: A standard curve for determining isoflurane concentration was generated based upon 1 mL mixtures of a base solution, i.e., 2% w/v surfactant plus PBS or HBSS; 10% v/v FC-43; and, various known v/v % isoflurane concentrations. A 1 mL aliquot of each of these mixtures was weighed and compared to its expected weight based on the density of each component, and a predicted density of each mixture. The predicted or expected density of each mixture was determined by the following equation: ρexpected=ν%A*ρA+ν%BρB+ν%CρC
where ρ is the density, and A, B, C are the surfactant solution, PCF or FC-43, and isoflurane, respectively. FIG. 8 is a standard curve generated in accordance with the procedure of this example for the determination of isoflurane concentration by weight. The measured values were compared to the theoretical values, or ρexpected, and a high degree of correlation, R^2>0.99, was observed, as illustrated in FIG. 9.
From the standard curve generated of the mixtures, the content of isoflurane in any emulsion can be determined by weighing a known volume, for example, a 1 mL aliquot. and tabulating the known portions of the weight, e.g., the volume percentages of the base solution and PCF, i.e., FC-43, and calculating the unknown volume by dividing the remaining weight by the density of pure isoflurane. […]

Series [3] can be described thus: Isoflurane concentration and loss over time measured by ATR-FTIR (1300-1260 cm^-1). The conditions noted are these: exposed to air. The format is physicochemical. Here is the method:
In accordance with the present example, ATR-FTIR spectra were recorded on a PerkinElmer Spectrum 100 FTIR spectrometer equipped with a KBr beam splitter, 1 bounce Universal Di/ZnSe ATR sampling accessory, and electronically, temperature-stabilized fast recovery deuterated triglycine sulfate detector. The spectra generated are an average of four scans at a resolution of 4 cm^−1. Emulsion samples of 50 μL each were obtained from each of the emulsions described below, and the emulsion samples were measured by covering the measurement surface. Standard curves were generated by manufacturing emulsions of known volume percentage isoflurane by gravimetric determination, performing ATR-FTIR measurements and then, taking area under the curve (“AUC”) determinations of peaks in the region specific to fluorine bond vibration (1300-1000 cm^−1). […]
From these peaks, measurements of the area under the curve (“AUC”) for each of the two spectral regions, once again, 1300-1260 cm^−1 and 1225-1011 cm^−1, were used to generate standard curves of isoflurane concentration. […] The two curves were generated to evaluate the possibility of isoflurane loss during the emulsification process, as a comparison between the two standard curves would allow for assessment of error in emulsion manufacture and allow for more accurate quantification. […]

Each structure is given as a SMILES string.

`OO` [H2O2, hydrogen peroxide]: the “β-TC3 cell survival compared to controls” value in series [1] (0.3 mM H2O2 for 3 hours alone) was determined as 44±13%. The “p38 MAPK activity” value in the series with p38 MAPK (treatment by H2O2 alone) is recorded as “increased protein kinase activity”.
As for `FC(F)OC(Cl)C(F)(F)F` (centres unmarked) [isoflurane], the “time to essentially complete evaporation” value in series [2] is “over 0.5 hours”. For the same molecule, the “fraction of sample evaporated” value in series [2] (after about 0.2 hours) is on record as approximately 50%. For the same molecule, the “time to complete evaporation on ATR-FTIR crystal” value in series [3] was not above 10 s. Further, the “β-TC3 cell survival compared to controls” value in series [1] (0.5 mM isoflurane pretreatment 15 minutes, washout, then 0.3 mM H2O2 for 3 hours) is 98±2%; in series [1] (0.5 mM isoflurane pretreatment 60 minutes, washout, then 0.3 mM H2O2 for 3 hours) it was 105±0%. In addition, the “p38 MAPK activity” value in the series with p38 MAPK (isoflurane pretreatment, compared to cells exposed to H2O2 alone) is reported as “significantly decreased p38 MAPK activity”.

These data come from US9308269B2, “Stable liquid formulations of volatile gas anesthetics” (UNIVERSITY OF MIAMI, priority 2011, dated 2016).
